Data reported in patent US6641841B2, “Tablet composition” (Ajinomoto Co., Inc., priority 1996, dated 2003).

What was measured:
blood sugar level = settings: taken orally; cited from earlier work
[1] = Bioavailability of compound [1] taken orally before or after a meal; type: in vivo

For `CC(C)[C@H]1CC[C@H](C(=O)N[C@H](Cc2ccccc2)C(=O)O)CC1` [compound [1], N-(trans-4-isopropylcyclohexanecarbonyl)-D-phenylalanine], which “effect of lowering the blood sugar level” value (blood sugar level) is on record?
Its value is “excellent effect of lowering the blood sugar level”.

What about the bioavailability [1] of the same compound?
The bioavailability was “lowered”.
